The source of these data is US12337009B2, “Nucleotide derivatives and methods of use thereof” (The Trustees of Columbia University in the City of New York, priority 2016, dated 2025).

Assay [1] deals with DNA polymerase. From the text:
FIGS. 23A-23B. MALDI-TOF mass spectra of DNA extension products from polymerase reactions using 3′-O-Rox-SS-dATP for 5, 10, and 30 cycles.
FIGS. 25A-25C. MALDI-TOF mass spectrum of DNA extension products from polymerase reactions using a mixture of 3′-O-tButyl-SS-dATP and 3′-O-Rox-SS-dATP at a 1:1 ratio. […] FIG. 25B: 3′-O-tButyl-SS-dATP (M.W. 625). FIG. 25C: 3′-O-Rox-SS-dATP (M.W. 1157).
FIG. 26. MALDI-TOF mass spectrum of a DNA extension product from polymerase reaction using 3′-O-TCO-SS-dTTP.
FIGS. 27A-27B. MALDI-TOF mass spectrum of a DNA extension product from polymerase reaction using 3′-O-Biotin-dCTP.
FIGS. 28A-28C. MALDI-TOF mass spectrum of DNA extension products from polymerase reaction using with a mixture of 3′-O-Rox-SS-dATP and 3′-O-Rox-PEG4-SS-dATP at a 1:1 ratio.

Assay [2] relates to Therminator IX DNA polymerase. In words: Polymerase extension reaction with 3′-O-modified reversible terminators, MALDI-TOF MS readout. The following applies: extension reactions incl. 1:1 mixtures of two terminators, MALDI-TOF MS (FIGS. 23A-28C). Format: biochemical. As for the experimental part:
The reaction was conducted in an ABI GeneAmp PCR System 9700 with initial incubation at 65° C. for 30 second, followed by 38 cycles of 65° C./30 sec, 45° C./30 sec, 65° C./30 sec. Multiple reactions were carried out and an aliquot of the reaction mixture was desalted using a C18 ZipTip column (Millipore, MA) and analyzed by MALDI-TOF MS (ABI Voyager DE). Polymerase extension reaction using 3'-O-SS-Rox-dATP for 5, 10, and 30 cycles. […] The reactions were conducted in an ABI GeneAmp PCR System 9700 with initial incubation at 65° C. for 30 second, followed by 5, 10, or 30 cycles of 65° C./30 sec, 45° C./30 sec, 65° C./30 sec. The reaction mixtures were desalted using Oligo Clean & ConcentratorTM (ZYMO Research) and analyzed by MALDI-TOF MS (ABI Voyager DE) and the results are shown in FIGS. 23A-23B. DNA template: [NT] ID NO:6). […] The reaction mixtures were desalted using Oligo Clean & ConcentratorTM (ZYMO Research) and analyzed by MALDI-TOF MS (ABI Voyager DE) the result is shown in FIG. 24. […] The reaction mixtures were desalted using Oligo Clean & ConcentratorTM (ZYMO Research) and analyzed by MALDI-TOF MS (ABI Voyager DE) the result is shown in FIGS. 25A-25C. […] The reaction mixtures were desalted using Oligo Clean & ConcentratorTM (ZYMO Research) and analyzed by MALDI-TOF MS (ABI Voyager DE) the result is shown in FIGS. 28A-28C. […]

On to `CC(C)(C)SSCO[C@H]1C[C@H](n2cnc3c(N)ncnc32)O[C@@H]1COP(=O)(O)OP(=O)(O)OP(=O)(O)O` [3′-O-tButyl-SS-dATP, 3′-O-t-Butyldithiomethyl(SS)-dATP], for which the extension entry in assay [1] (after 5 cycles of extension) is reported as “completed”. Moreover, the “efficiency of incorporation by polymerase versus 3′-O-Rox-SS-dATP” value in assay [1] (mixture at a 1:1 ratio) is listed as “much higher efficiency”. Further, the “height of the extension product peak versus that with 3′-O-Rox-SS-dATP” value in assay [1] (mixture at a 1:1 ratio, after 5 cycles) is given as “more than twice”. Besides, the “incorporation efficiency relative to another nucleotide analogue” value in assay [2] is listed as “much higher efficiency than 3′-O-Rox-SS-dATP”.
